The results in this text go back to EP2440567B1, “SUBSTITUTED 16,17-ANNELLATED STEROID COMPOUNDS FOR USE IN WOMEN'S HEALTHCARE” (priority 2009, dated 2010).

The structures appear in SMILES notation.

In one series the test system is endometrium. The series can be described thus: 4-week phase I study, endometrial biopsies histopathology. It is filed as in vivo. The note with it: female human volunteers; biopsies on day 29; exposure via oral 10 mg daily Org 41621.
Series [1] relates to estrogen receptors in the CNS. The series can be described thus: Lordosis model (facilitation of female sexual behaviour). It counts as in vivo.
In series [2] the test system is circulating levels of LH and FSH. The series can be described thus: 4-week multiple dose study in ovariectomized female rats. It counts as in vivo, rat.
The next series deals with pregnant rats. In words: Embryofetal toxicity study in pregnant rats. It is filed as in vivo, rat.
The test system of the next series is bone. In words: AOST BMD (bone mineral density). It is filed as in vivo.
The subject of a further series is vaginal tissue. In words: Allen-Doisy test. It counts as in vivo.
For the next series, the system named is ovulation. In words: Ovulation inhibition in intact cycling female rats. It is filed as in vivo.

For the compound `CCC[C@@H]1Cc2cc(O)ccc2[C@H]2CC[C@@]3(C)[C@@H](C[C@H]4CCC(=O)C[C@]43O)[C@H]12` [Compound 10, (7α,16β,17α)-3,17-dihydroxy-7-propyl-16,24-cyclo-19,21-dinorchola-1,3,5(10)-trien-22-one], in the series on endometrium, the “Histopathology scores of endometrial biopsies” value was “mostly atrophic or inactive endometrium with some subjects showing conversion to secretory (P-type) endometrium” and the “signs of hyperplasia (endometrium)” value is “no signs of hyperplasia”. Besides, the “Lordosis (rat) MAD p.o.” value in series [1] is reported as 0.14 mg/kg.day. Moreover, the “suppression of circulating levels of LH and FSH” value in series [2] (4-week multiple dose, oral and subcutaneous application in gelatine/mannitol) is recorded as “effectively suppress”. In series [2] (same series of studies), the “behaviour on vaginal tissue, cholesterol metabolism and bone (bone mineral density, circulating osteocalcin)” value is listed as “behaves as an estrogen receptor agonist”. In the series on pregnant rats (pregnant rats, oral gavage, 0.1 mg/kg), the “minor defects, incidence of wavy ribs” value is 4/153. The “body weight gain of the dams” value with pregnant rats (pregnant rats, oral gavage, 0.1 mg/kg/day up to and including 10 mg/kg/day) is “significant reduction in body weight gain”. Further, the “effects (fetal defects)” value in the series on pregnant rats (pregnant rats, oral gavage, 0.3 mg/kg, based on a total of 13 fetuses) was “No effects”. Besides, in the series on pregnant rats (pregnant rats, oral gavage, treated groups), the “major defects (fetuses)” value was “No major defects”. For the same compound, in the series with pregnant rats (preliminary embryofetal development study, up to a dose of 0.3 mg/kg), the “teratogenicity in the rat” value is given as “no evidence of teratogenicity”. Moreover, in the series with bone, the “AOST BMD (rat) MAD p.o.” value came out at 0.12 mg/kg.day. The “Allen-Doisy (rat) MAD p.o.” value with vaginal tissue was determined as 0.15 mg/kg.day. In addition, the “Ovulation Inhibition (rat) MAD p.o.” value in the series on ovulation was 0.10 mg/kg.day.
Regarding `C#C[C@]1(O)CC[C@H]2[C@@H]3CCc4cc(O)ccc4[C@H]3CC[C@@]21C` [EE, Ethynyl-Estradiol, reference compound], in series [1], the “Lordosis (rat) MAD p.o.” value is recorded as 0.035 mg/kg.day. Further, in the series with bone, the “AOST BMD (rat) MAD p.o.” value was 0.020 mg/kg.day. Besides, the “Allen-Doisy (rat) MAD p.o.” value with vaginal tissue came to 0.016 mg/kg.day. In addition, the “Ovulation Inhibition (rat) MAD p.o.” value in the series with ovulation stood at 0.022 mg/kg.day.
For the compound `CCC[C@@H]1Cc2cc(O)ccc2[C@H]2CC[C@@]3(C)[C@@H](C[C@H]4CC[C@H](O)C[C@]43O)[C@H]12` [Org 41621, (7α,16β,17α,22β)-7-propyl-16,24-cyclo-19,21-dinorchola-1,3,5(10)-triene-3,17,22-triol, reference compound], the “major fetal abnormalities (ribs, humerus and scapula)” value with pregnant rats (pregnant rats, oral gavage, 0.09 mg/kg) is listed as 3/273; in the series with pregnant rats (pregnant rats, oral gavage, 0.15 mg/kg) it was 11/216.
